This note sets out measurements from ChEMBL document CHEMBL4371065, “Design and synthesis of biaryloxazolidinone derivatives containing a rhodanine or thiohydantoin moiety as novel antibacterial agents against Gram-positive bacteria” (Bioorg Med Chem Lett, 2019).

Converted amounts (≈) assume the structure as drawn. Where only a bound is given, the exact number is not on record here.

As usually defined, the MIC is the smallest concentration in the dilution series that meets the test's criterion for growth inhibition. By IC50 is commonly meant the concentration at which inhibition is half-maximal. High values mean a need for much substance, low ones inhibition by little substance. As usually defined, the inhibition is the change of the read-out against control, counted positive when it falls.

In series [1] the test system is Staphylococcus aureus. Description: Antibacterial activity against Staphylococcus aureus ATCC 29213 by broth liquid microdilution method. Format: functional.
For series [2], the system named is Staphylococcus aureus. As to the kind of experiment: Antibacterial activity against methicillin-resistant Staphylococcus aureus by broth liquid microdilution method. Format: functional. (In general: Dilution methods test growth across graded concentrations, often in twofold steps.)
The test system of series [3] is Staphylococcus aureus. Description: Antibacterial activity against methicillin-sensitive Staphylococcus aureus by broth liquid microdilution method. Format: functional.
In series [4] the test system is Enterococcus faecalis. Description: Antibacterial activity against linezolid-resistant Enterococcus faecalis by broth liquid microdilution method. The format is functional.
The subject of series [5] is Enterococcus faecium. Description: Antibacterial activity against vancomycin-resistant Enterococcus faecium by broth liquid microdilution method. Format: functional.
Series [6] deals with Staphylococcus aureus. Description: Antibacterial activity against clinical isolates of methicillin-resistant Staphylococcus aureus by broth liquid microdilution method. Format: functional.
The test system of series [7] is Staphylococcus aureus. Description: Antibacterial activity against clinical isolates of methicillin-sensitive Staphylococcus aureus by broth liquid microdilution method. The format is functional.
Series [8] concerns Enterococcus faecalis. Description: Antibacterial activity against clinical isolates of linezolid-resistant Enterococcus faecalis by broth liquid microdilution method. The format is functional.
For series [9], the system named is Enterococcus faecium. As to the kind of experiment: Antibacterial activity against clinical isolates of vancomycin-resistant Enterococcus faecium by broth liquid microdilution method. The format is functional.
In series [10] the test system is Enterococcus faecalis. Description: Potency index, ratio of linezolid MIC to compound MIC for clinical isolates of linezolid-resistant Enterococcus faecalis. Format: functional.
The test system of series [11] is HepG2. Description: Cytotoxicity against human HepG2 cells after 48 hrs by MTT assay. The format is cell-based. To be noted: HepG2, 48 h. A general note: Tetrazolium dyes change colour on reduction, which living cells bring about.
The target in series [12] is T1, MAO-A (Homo sapiens, UniProt P21397).
T1 sequence (P21397 whole entry): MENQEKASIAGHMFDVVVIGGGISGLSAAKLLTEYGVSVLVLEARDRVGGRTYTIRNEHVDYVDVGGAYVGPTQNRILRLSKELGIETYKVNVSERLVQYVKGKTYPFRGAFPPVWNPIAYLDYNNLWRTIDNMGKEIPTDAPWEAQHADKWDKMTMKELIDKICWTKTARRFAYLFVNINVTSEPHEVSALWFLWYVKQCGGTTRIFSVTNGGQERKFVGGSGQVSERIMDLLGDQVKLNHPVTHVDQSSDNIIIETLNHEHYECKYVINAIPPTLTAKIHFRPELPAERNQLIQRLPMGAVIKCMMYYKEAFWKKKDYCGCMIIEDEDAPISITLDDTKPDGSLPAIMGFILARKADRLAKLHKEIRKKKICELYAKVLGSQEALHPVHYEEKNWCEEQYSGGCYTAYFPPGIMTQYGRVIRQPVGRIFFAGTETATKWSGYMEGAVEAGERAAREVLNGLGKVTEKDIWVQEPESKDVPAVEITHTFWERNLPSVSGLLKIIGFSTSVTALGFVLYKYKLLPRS
Description: Inhibition of recombinant human full length N-terminal FLAG-tagged MAO-A expressed in sf9 cells at 30 uM preincubated for 15 mins followed by substrate addition and measured after 60 mins by luminescence assay relative to control.

Series [13] has as its system Staphylococcus aureus. Description: Potency index, ratio of radezolid MIC to compound MIC for Staphylococcus aureus ATCC 29213. Format: functional.
Series [14] relates to Staphylococcus aureus. Description: Potency index, ratio of radezolid MIC to compound MIC for methicillin-sensitive Staphylococcus aureus. The format is functional.
The test system of series [15] is Enterococcus faecalis. Description: Potency index, ratio of radezolid MIC to compound MIC for linezolid-resistant Enterococcus faecalis. Format: functional.
The subject of series [16] is Enterococcus faecium. Description: Potency index, ratio of radezolid MIC to compound MIC for vancomycin-resistant Enterococcus faecium. The format is functional.

Consider `CC(=O)NC[C@H]1CN(c2ccc(-c3ccc(/C=C4\SC(=S)N(CC(=O)O)C4=O)cc3)c(F)c2)C(=O)O1`, for which the MIC in [1], in series [2], in series [3], in series [4] and in [5] was 1 µg/mL (≈ 1.89 µM) in each case.
On to `CC(=O)NC[C@H]1CN(c2ccc(-c3ccc(/C=C4\SC(=S)N(C(C)C(=O)O)C4=O)cc3)c(F)c2)C(=O)O1` (stereo partly specified), for which the minimal inhibitory concentration (MIC) in series [1], in series [2], in series [3], in series [4] and in [5] was 1 µg/mL (≈ 1.84 µM) in each case.
Consider `CC(=O)NC[C@H]1CN(c2ccc(-c3ccc(/C=C4\SC(=S)N(CCCN5CCCCC5)C4=O)cc3)c(F)c2)C(=O)O1`, for which the MIC in series [1], in series [2], in series [3], in series [4] and in series [5] was 1 µg/mL (≈ 1.68 µM) in each case.
As for `CCN(CC)CCCN1C(=O)/C(=C/c2ccc(-c3ccc(N4C[C@H](CNC(C)=O)OC4=O)cc3F)cc2)NC1=S`, the MIC in series [1] is 0.125 µg/mL (≈ 0.22 µM); in series [2], 0.125 µg/mL (≈ 0.22 µM); in series [6] it was 0.125 to 0.5 µg/mL (≈ 0.22 to 0.881 µM); in series [3], 0.125 µg/mL (≈ 0.22 µM); in series [4], 0.125 µg/mL (≈ 0.22 µM); in series [5], 0.125 µg/mL (≈ 0.22 µM). Also, the MIC in series [7] lay within 0.125 to 0.25 µg/mL (≈ 0.22 to 0.44 µM); in [8], 0.125 to 0.25 µg/mL (≈ 0.22 to 0.44 µM); in series [9], 0.25 to 0.5 µg/mL (≈ 0.44 to 0.881 µM). For the same molecule, the Ratio in series [10] came out at 64. The molecule further displayed an IC50 in [11] of 91 µM. Besides, the inhibition at 1 h, 30 µM in series [12] came out at 98%.
Turning to `CCOC(=O)CN1C(=O)/C(=C/c2ccc(-c3ccc(N4C[C@H](CNC(C)=O)OC4=O)cc3F)cc2)SC1=S`, the MIC in series [1], in series [2], in series [3], in series [4] and in [5] was 1 µg/mL (≈ 1.79 µM) each time.
In the case of `CC(=O)NC[C@H]1CN(c2ccc(-c3ccc(/C=C4\NC(=S)N(CCCN5CCOCC5)C4=O)cc3)c(F)c2)C(=O)O1`, the MIC in [1], in [2], in series [3], in [4] and in series [5] was 2 µg/mL (≈ 3.44 µM) each time.
In the case of `CC(=O)NC[C@H]1CN(c2ccc(-c3ccc(/C=C4\NC(=S)N(CCCN5CCCCC5)C4=O)cc3)c(F)c2)C(=O)O1`, the MIC in series [1], in series [2], in series [3], in series [4] and in [5] was 1 µg/mL (≈ 1.73 µM) each time.
Take `CC(=O)NC[C@H]1CN(c2ccc(-c3ccc(/C=C4\SC(=S)N(C)C4=O)cc3)c(F)c2)C(=O)O1`: the MIC in series [1], in [2], in [3], in series [4] and in series [5] was 0.25 µg/mL (≈ 0.515 µM) each time.
In the case of `CC(=O)NC[C@H]1CN(c2ccc(-c3ccc(/C=C4\SC(=S)N(C(C(=O)O)c5ccccc5)C4=O)cc3)c(F)c2)C(=O)O1` (stereo partly specified), the MIC in [1], in [2], in [3], in series [4] and in series [5] was 1 µg/mL (≈ 1.65 µM) each time.
As for `CC(=O)NC[C@H]1CN(c2ccc(-c3ccc(/C=C4\SC(=S)NC4=O)cc3)c(F)c2)C(=O)O1`, the MIC in [1] was 0.125 µg/mL (≈ 0.265 µM); in series [2], 0.125 µg/mL (≈ 0.265 µM); in series [3], 0.125 µg/mL (≈ 0.265 µM); in series [4], 0.125 µg/mL (≈ 0.265 µM); in [5], 0.125 µg/mL (≈ 0.265 µM); in series [7], 1 to 2 µg/mL (≈ 2.12 to 4.24 µM). The MIC in series [8] and in [9] was 1 to 2 µg/mL (≈ 2.12 to 4.24 µM) throughout. For the same molecule, the Ratio in series [13], in series [14], in series [15] and in series [16] was 4 each time. In series [11], this molecule returned an IC50 of 63.9 µM. For the same molecule, the inhibition at 1 h, 30 µM in [12] is 99%.
Turning to `CCN(CC)CCCN1C(=O)/C(=C/c2ccc(-c3ccc(N4C[C@H](CNC(C)=O)OC4=O)cc3F)cc2)SC1=S`, the MIC in series [1], in series [2], in series [3], in series [4] and in series [5] was 0.5 µg/mL (≈ 0.855 µM) throughout.
In the case of `CCN1C(=O)/C(=C/c2ccc(-c3ccc(N4C[C@H](CNC(C)=O)OC4=O)cc3F)cc2)SC1=S`, the minimal inhibitory concentration (MIC) in [1] turned out to be 0.25 µg/mL (≈ 0.5 µM); in [2], 0.25 µg/mL (≈ 0.5 µM); in series [3] it was 0.25 µg/mL (≈ 0.5 µM); in series [4], 0.5 µg/mL (≈ 1 µM); in [5], 0.5 µg/mL (≈ 1 µM).
Consider `CCN1C(=O)/C(=C/c2ccc(-c3ccc(N4C[C@H](CNC(C)=O)OC4=O)cc3F)cc2)NC1=S`, for which the MIC in series [1], in [2], in series [3], in [4] and in [5] was 0.25 µg/mL (≈ 0.518 µM) in each case.
Turning to `CCCN1C(=O)/C(=C/c2ccc(-c3ccc(N4C[C@H](CNC(C)=O)OC4=O)cc3F)cc2)SC1=S`, the minimum inhibitory concentration (MIC) in [1], in series [2], in [3], in [4] and in series [5] was 2 µg/mL (≈ 3.89 µM) throughout.
Consider `CCOC(=O)CN1C(=O)/C(=C/c2ccc(-c3ccc(N4C[C@H](CNC(C)=O)OC4=O)cc3F)cc2)NC1=S`, for which the MIC in series [1], in series [2], in series [3], in series [4] and in series [5] was 1 µg/mL (≈ 1.85 µM) throughout.
With `CC(=O)NC[C@H]1CN(c2ccc(-c3ccc(/C=C4\NC(=S)N(C(C)C)C4=O)cc3)c(F)c2)C(=O)O1`, the MIC in [1] is 1 µg/mL (≈ 2.01 µM); in [2], 1 µg/mL (≈ 2.01 µM); in [3], 1 µg/mL (≈ 2.01 µM); in [4] it was 0.5 µg/mL (≈ 1.01 µM); in series [5] it was 0.5 µg/mL (≈ 1.01 µM).
Take `CC(=O)NC[C@H]1CN(c2ccc(-c3ccc(/C=C4\NC(=S)NC4=O)cc3)c(F)c2)C(=O)O1`: the MIC in series [1] was 0.125 µg/mL (≈ 0.275 µM); in series [2], 0.125 µg/mL (≈ 0.275 µM); in [3] it was 0.125 µg/mL (≈ 0.275 µM); in series [4], 0.125 µg/mL (≈ 0.275 µM); in series [5], 0.125 µg/mL (≈ 0.275 µM); in [7], 0.5 to 1 µg/mL (≈ 1.1 to 2.2 µM). The MIC in [8] and in series [9] was 0.25 to 0.5 µg/mL (≈ 0.55 to 1.1 µM) each time. The same molecule had a 50% inhibitory concentration (IC50) in series [11] of 61.7 µM. Moreover, the inhibition at 1 h, 30 µM in series [12] was 99%.
For the molecule `CC(=O)NC[C@H]1CN(c2ccc(-c3ccc(/C=C4\NC(=S)N(C)C4=O)cc3)c(F)c2)C(=O)O1`, the MIC in series [1], in [2], in series [3], in [4] and in series [5] was 0.5 µg/mL (≈ 1.07 µM) each time.
Take `CCCN1C(=O)/C(=C/c2ccc(-c3ccc(N4C[C@H](CNC(C)=O)OC4=O)cc3F)cc2)NC1=S`: the MIC in [1], in series [2], in [3], in series [4] and in [5] was 2 µg/mL (≈ 4.03 µM) each time.
With `CC(=O)NC[C@H]1CN(c2ccc(N3CCOCC3)c(F)c2)C(=O)O1` [LINEZOLID], the MIC in series [1] was 1 µg/mL (≈ 2.96 µM); in [2], 1 µg/mL (≈ 2.96 µM); in [3] it was 1 µg/mL (≈ 2.96 µM); in series [4], over 16 µg/mL; in series [5] it was 2 µg/mL (≈ 5.93 µM); in series [7], 1 to 4 µg/mL (≈ 2.96 to 11.9 µM). Further, the values for the MIC in series [8] and in [9] were over 16 µg/mL and 1 to 4 µg/mL (≈ 2.96 to 11.9 µM), respectively. In [11], this molecule came in with an IC50 of over 25 µM. The inhibition at 1 h, 30 µM in [12] was 76%.
For the molecule `CC(=O)NC[C@H]1CN(c2ccc(-c3ccc(CNCc4cnn[nH]4)cc3)c(F)c2)C(=O)O1` [RADEZOLID], the MIC in series [1], in series [2], in series [3], in [4] and in series [5] was 0.5 µg/mL (≈ 1.14 µM) each time.
